US12227488B2, “Small molecule degraders of Helios and methods of use” (DANA-FARBER CANCER INSTITUTE, INC., priority 2018, dated 2025)
“Also recorded” adds a separate entry of the source.

Columns and labels:
IKZF1 = molecular target: T1, IKZF1 (Homo sapiens, UniProt Q13422); assay: Cellular degradation assay, eGFP-IKZF1Δ fusion with mCherry reporter in Flp-In 293 cells; type: cell-based; settings: for IKZF1 GFP/RFP Relative Abundance: 5 h incubation, n=1
T1 construct: expressed in transfected cells; host or cells: Flp-In 293
Summary of the method: (§1)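 DC50,5 h derived by variable-slope nonlinear fit of the per-well ratio of GFP-positive to mCherry-positive cells, imaged after 5 h compound exposure at 0.5% DMSO.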

IKZF2 = assay: Cellular degradation assay, eGFP-IKZF2Δ fusion with mCherry reporter in Flp-In 293 cells; type: cell-based; settings: for IKZF2 GFP/RFP Relative Abundance: 5 h incubation, n=1
Summary of the method: as §1

Ikzf2 mRNA = assay: qPCR for Ikzf2 mRNA in Jurkat cells; type: cell-based; settings: 4 h, n=3
Procedure: FIG. 2A is a graph of 520/490 TR-FRET ratios. […] FIG. 2C is immunoblots from wildtype or Crbn−/− Jurkat cells treated with compound 54 for 4 h. FIG. 2D is immunoblots from Jurkat cells co-treated with compound 54 (1 μM) and bortezomib (bort.; 1 μM) or MLN4924 (1 μM) for 4 h. FIG. 2E is a bar graph showing quantitative polymerase chain reaction (qPCR) for Ikzf2 messenger ribonucleic acid (mRNA) from Jurkat cells treated for 4 h (n=3; N.S.=not significant).

Helios [1] = molecular target: T2, Helios (Homo sapiens, UniProt Q96SW2+Q9UKS7); assay: Immunoblot for Helios in Jurkat cells; type: cell-based; settings: for Helios degradation on co-treatment with proteasome or NAE inhibitor: 1 μM compound with 1 μM bortezomib, MLN4924 or carfilzomib, 4 h; for Helios degradation (immunoblot): wildtype or Crbn−/− Jurkat cells, 4 h treatment
T2 construct: endogenous in cells; host or cells: Jurkat
Procedure: (§2) A focused library of imide analogs was synthesized and assessed for their ability to induce dimerization between CRBN and Helios in a time-resolved fluorescence energy transfer (TR-FRET) assay (FIG. 1A).
(§3) Cells were lysed in M-PER buffer (Thermo Scientific) containing protease/phosphatase inhibitor cocktail (Roche). Protein concentration was measured using a BCA assay (Pierce™) Equivalent amounts of each sample were loaded on 4-12% Bis-Tris gels (Invitrogen™) transferred to nitrocellulose membranes, and immunoblotted with the indicated antibodies. IRDye®800-labeled goat anti-rabbit IgG and IRDye®680-labeled goat anti-mouse IgG (LI-COR®) secondary antibodies were purchased from LI-COR®, and membranes were detected on an Odyssey® detection system (LI-COR® Biosciences).
Cells were lysed in M-PER buffer (Thermo Scientific) containing protease/phosphatase inhibitor cocktail (Roche). Protein concentration was measured using a BCA assay (Pierce™) Equivalent amounts of each sample were loaded on 4-12% Bis-Tris gels (Invitrogen™) transferred to nitrocellulose membranes, and immunoblotted with the indicated antibodies. IRDye®800-labeled goat anti-rabbit IgG and IRDye®680-labeled goat anti-mouse IgG (LI-COR®) secondary antibodies were purchased from LI-COR®, and membranes were detected on an Odyssey detection system (LI-COR® Biosciences).

CRBN and Helios (IKZF2) = molecular target: T3, CRBN and Helios (IKZF2) (Homo sapiens, UniProt Q96SW2+Q9UKS7); assay: TR-FRET dimerization assay (CRBN-IKZF2 ternary complex formation); type: binding; settings: for TR-FRET signal (520/490 ratio), CRBN-Helios dimerization, in words: FIG. 1B, 2A, 5; for TR-FRET-IKZF2 (Normalized to CC-885): n=1
T3 construct: His (N); Strep (N)
Summary of the method: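 Compound-induced IKZF2 recruitment to CRBN was read as the 520/490 nm TR-FRET ratio after 15 min at rt. The mix held biotinylated IKZF2, BODIPY-labeled CRBN bound to DDB1 lacking the BPB propeller, tracer Tb-streptavidin and compound titrations; n=1, from ≥3 technical replicates per well.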

Ikaros [2] = molecular target: T4, Ikaros (Homo sapiens, UniProt Q13422+Q96SW2); assay: Immunoblot for Ikaros in Jurkat cells; type: cell-based; settings: for Ikaros degradation (immunoblot): 4 h treatment
T4 construct: endogenous in cells; host or cells: Jurkat
Procedure: as §2, §3

GSPT1 [3] = molecular target: T5, GSPT1 (Homo sapiens, UniProt P15170+Q96SW2); assay: Cellular degradation assay, eGFP-GSPT1 fusion with mCherry reporter in Flp-In 293 cells; type: cell-based; parameters: expressed in transfected cells; host or cells: Flp-In 293; settings: for GSPT1 GFP/RFP Relative Abundance: 5 h incubation, n=1
Summary of the method: as §1

Helios [4] = molecular target: T6, Helios (Mus musculus, UniProt P81183); assay: Immunoblot for Helios in Hoxb8-immortalized myeloid progenitor cells (wildtype or Crbn^I391V/I391V); type: cell-based, murine; settings: Hoxb8 myeloid progenitor cells from wildtype or Crbn^I391V/I391V mice, 18 h
T6 construct: endogenous in cells; host or cells: Hoxb8-immortalized myeloid progenitor cells from mice
Procedure: IKZF1/3 are not susceptible to IMiD-mediated degradation in murine cells, and this can be rescued by mutating a single amino acid on the surface of murine CRBN (Ile 391) to the analogous human residue (Val). To determine whether Helios follows a similar pattern, Hoxb8-immortalized myeloid progenitor cells derived from wildtype or Crbn^I391V/I391V mice were treated with compound 54. […] Thus, Helios is degradable in murine cells only if they express ‘humanized’ CRBN.

GSPT1 [5] = molecular target: T5, GSPT1; assay: Immunoblot for GSPT1 in Jurkat cells; type: cell-based; parameters: expressed in transfected cells; settings: wildtype or Crbn−/− Jurkat cells, 4 h treatment
Procedure: as §2, §3

Ikaros [6] = molecular target: T7, Ikaros (Mus musculus, UniProt Q03267+Q8C7D2, I391V); assay: Flow cytometry of Ikaros in splenic T cell subpopulations from Crbn^I391V/I391V mice; type: cell-based, murine; settings: 1 μM, 16 h
T7 construct: from tissue; host or cells: spleen (T cell subpopulations) of Crbn I391V/I391V mice
Procedure: (§4) FIG. 8A-FIG. 8B are a series of graphs depicting levels of Ikaros and Helios that were assessed by flow cytometry. […] FIG. 8B depicts levels of Ikaros and Helios of splenic T cell subpopulations from Crbn^I391V/I391V mice that were treated with 1 μM of indicated compounds for 16 h.
(§5) Splenocytes were fixed/permeabilized and stained with fluorochrome-coupled antibodies. FACS plots of murine splenocytes were stained for TCRβ, CD4, CD8, and FoxP3 (FIG. 8A).

[7] = system: Foxp3+ regulatory T cells; assay: IFNγ production of isolated Crbn^I391V/I391V Tregs after PMA/ionomycin restimulation; type: cell-based, murine; settings: 2 μM, 4 days, restimulated with PMA/ionomycin 5 h
Procedure: (§6) FIG. 9A-FIG. 9C are a series of graphs showing that Helios degradation in Tregs permits IFNγ production. Isolated Crbn^I391V/I391V Tregs were treated with 2 μM of compound 69, 5 ng/mL IL-2, and 20 ng/mL IL-4 for 4 days and then restimulated with PMA/ionomycin for 5 h. […] FIG. 9B is a bar graph showing the percent increase of IFNγ with treatment of compound 69.
(§7) Foxp3+ regulatory T cells were isolated by sorting for CD4+ CD25+ T cells from Crbn^I391V/I391V spleens, treated with 2 μM of compound 69, 5 ng/mL IL-2, and 20 ng/mL IL4 for 4 days and then restimulated with PMA/ionomycin for 5 h. Cells were then fixed/permeabilized and stained with fluorochrome-coupled antibodies. […] FIG. 9B is a bar graph showing the percent increase of IFNγ with treatment of compound 69.

Helios [8] = molecular target: T8, Helios (Mus musculus, UniProt P81183+Q8C7D2, I391V); assay: Flow cytometry of Helios in splenic T cell subpopulations from Crbn^I391V/I391V mice; type: cell-based, murine; settings: 1 μM, 16 h
T8 construct: from tissue; host or cells: spleen (T cell subpopulations / CD4+ CD25+ Tregs) of Crbn I391V/I391V mice
Procedure: as §4, §5

Helios [9] = molecular target: T8, Helios; assay: Helios levels in isolated Crbn^I391V/I391V Tregs; type: cell-based, murine; settings: 2 μM, IL-2 and IL-4, 4 days
Procedure: as §6, §7

SALL4 ZNF1-2 = molecular target: T9, SALL4 ZNF1-2 (Homo sapiens, UniProt Q96SW2+Q9UJQ4); assay: Cellular degradation assay, eGFP-SALL4 ZnF1-2 fusion with mCherry reporter in Flp-In 293 cells; type: cell-based; settings: 5 h incubation, n=1
T9 construct: IKZF1Δ, IKZF2Δ, GSPT1 and SALL4 ZnF1-2 were subcloned; expressed in transfected cells; host or cells: Flp-In 293
Summary of the method: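 Read-out is the ratio of GFP-positive to mCherry-positive cells per well, imaged at 488 and 561 nm right after 5-hour compound exposure (normalised to 0.5% DMSO). Cells: Flp-In 293 stably carrying eGFP-P2A-mCherry construct fused to SALL4 ZnF1-2.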

[10] = compound concentration 2.00E−05
[11] = compound concentration 2.00E−06
[12] = compound concentration 2.00E−07
[13] = compound concentration 6.6667E−05
[14] = compound concentration 6.6667E−06
[15] = compound concentration 6.6667E−07 (667 nM)
[16] = half degradation at 5 h (DC50,5 h), triplicate, 11 point dose response

T1 sequence (Q13422 83-213 isoform Q13422-7 limits assumed): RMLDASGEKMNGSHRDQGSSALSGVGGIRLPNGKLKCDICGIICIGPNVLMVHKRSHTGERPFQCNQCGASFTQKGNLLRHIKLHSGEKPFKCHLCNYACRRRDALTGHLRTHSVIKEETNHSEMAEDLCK
T1 sequence (Q96SW2 whole entry partner, the tested form may be a part): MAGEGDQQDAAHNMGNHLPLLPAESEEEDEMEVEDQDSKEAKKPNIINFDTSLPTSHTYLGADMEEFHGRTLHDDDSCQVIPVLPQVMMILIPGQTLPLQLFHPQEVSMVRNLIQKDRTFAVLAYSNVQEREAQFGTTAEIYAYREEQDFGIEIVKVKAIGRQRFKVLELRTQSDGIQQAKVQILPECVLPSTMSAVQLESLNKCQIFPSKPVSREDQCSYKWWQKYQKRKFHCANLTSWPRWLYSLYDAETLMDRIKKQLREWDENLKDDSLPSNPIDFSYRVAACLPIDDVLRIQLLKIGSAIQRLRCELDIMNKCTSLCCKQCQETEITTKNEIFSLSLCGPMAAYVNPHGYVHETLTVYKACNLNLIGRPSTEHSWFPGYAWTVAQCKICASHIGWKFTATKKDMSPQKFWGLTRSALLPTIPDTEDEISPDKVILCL
T1 sequence (Q16531 2-1140 partner limits assumed): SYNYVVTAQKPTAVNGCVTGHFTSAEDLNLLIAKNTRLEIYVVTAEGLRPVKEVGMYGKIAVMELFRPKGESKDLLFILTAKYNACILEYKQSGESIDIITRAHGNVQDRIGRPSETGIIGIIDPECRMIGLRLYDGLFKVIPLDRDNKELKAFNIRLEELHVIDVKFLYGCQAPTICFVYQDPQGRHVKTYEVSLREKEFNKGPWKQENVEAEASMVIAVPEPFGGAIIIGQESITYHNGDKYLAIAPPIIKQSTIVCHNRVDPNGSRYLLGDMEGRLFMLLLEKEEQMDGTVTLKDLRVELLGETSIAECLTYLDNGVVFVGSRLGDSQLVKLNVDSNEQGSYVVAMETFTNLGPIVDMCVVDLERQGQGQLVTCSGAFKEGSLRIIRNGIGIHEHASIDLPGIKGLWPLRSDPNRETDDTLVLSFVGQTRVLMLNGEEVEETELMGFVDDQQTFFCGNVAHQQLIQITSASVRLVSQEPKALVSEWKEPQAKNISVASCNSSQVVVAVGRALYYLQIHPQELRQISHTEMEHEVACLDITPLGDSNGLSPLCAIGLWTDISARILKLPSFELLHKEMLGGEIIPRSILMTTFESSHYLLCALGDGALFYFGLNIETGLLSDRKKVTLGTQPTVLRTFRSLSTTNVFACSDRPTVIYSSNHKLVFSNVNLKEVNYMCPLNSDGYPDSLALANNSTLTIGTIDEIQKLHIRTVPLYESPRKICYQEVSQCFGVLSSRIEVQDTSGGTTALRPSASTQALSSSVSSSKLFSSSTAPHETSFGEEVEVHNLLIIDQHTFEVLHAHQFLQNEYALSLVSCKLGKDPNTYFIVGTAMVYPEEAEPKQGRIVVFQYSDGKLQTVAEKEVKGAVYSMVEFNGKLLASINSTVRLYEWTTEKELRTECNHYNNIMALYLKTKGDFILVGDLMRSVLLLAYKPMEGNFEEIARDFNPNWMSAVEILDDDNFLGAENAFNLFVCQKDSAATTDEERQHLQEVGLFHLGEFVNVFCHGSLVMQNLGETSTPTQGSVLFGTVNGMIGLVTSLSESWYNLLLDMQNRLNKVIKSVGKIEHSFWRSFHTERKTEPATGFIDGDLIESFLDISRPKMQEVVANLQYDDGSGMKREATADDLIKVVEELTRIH
T5 sequence (P15170 whole entry, the tested form may be a part): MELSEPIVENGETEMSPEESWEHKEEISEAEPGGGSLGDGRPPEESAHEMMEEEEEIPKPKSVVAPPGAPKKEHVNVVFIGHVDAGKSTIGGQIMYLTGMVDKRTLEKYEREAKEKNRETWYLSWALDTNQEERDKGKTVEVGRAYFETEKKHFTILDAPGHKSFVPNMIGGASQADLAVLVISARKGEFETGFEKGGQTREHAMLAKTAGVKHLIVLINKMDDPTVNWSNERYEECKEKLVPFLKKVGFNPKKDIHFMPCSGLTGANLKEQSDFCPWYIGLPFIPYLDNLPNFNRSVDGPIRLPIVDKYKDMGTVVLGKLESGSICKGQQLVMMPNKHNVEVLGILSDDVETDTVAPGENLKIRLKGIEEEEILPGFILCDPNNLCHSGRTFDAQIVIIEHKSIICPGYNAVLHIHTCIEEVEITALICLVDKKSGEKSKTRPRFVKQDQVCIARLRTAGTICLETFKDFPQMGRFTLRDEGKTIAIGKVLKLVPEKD
T5 sequence (Q96SW2 whole entry, the tested form may be a part): as the sequence (Q96SW2 whole entry partner, the tested form may be a part) above
T5 sequence (Q16531 whole entry partner, the tested form may be a part): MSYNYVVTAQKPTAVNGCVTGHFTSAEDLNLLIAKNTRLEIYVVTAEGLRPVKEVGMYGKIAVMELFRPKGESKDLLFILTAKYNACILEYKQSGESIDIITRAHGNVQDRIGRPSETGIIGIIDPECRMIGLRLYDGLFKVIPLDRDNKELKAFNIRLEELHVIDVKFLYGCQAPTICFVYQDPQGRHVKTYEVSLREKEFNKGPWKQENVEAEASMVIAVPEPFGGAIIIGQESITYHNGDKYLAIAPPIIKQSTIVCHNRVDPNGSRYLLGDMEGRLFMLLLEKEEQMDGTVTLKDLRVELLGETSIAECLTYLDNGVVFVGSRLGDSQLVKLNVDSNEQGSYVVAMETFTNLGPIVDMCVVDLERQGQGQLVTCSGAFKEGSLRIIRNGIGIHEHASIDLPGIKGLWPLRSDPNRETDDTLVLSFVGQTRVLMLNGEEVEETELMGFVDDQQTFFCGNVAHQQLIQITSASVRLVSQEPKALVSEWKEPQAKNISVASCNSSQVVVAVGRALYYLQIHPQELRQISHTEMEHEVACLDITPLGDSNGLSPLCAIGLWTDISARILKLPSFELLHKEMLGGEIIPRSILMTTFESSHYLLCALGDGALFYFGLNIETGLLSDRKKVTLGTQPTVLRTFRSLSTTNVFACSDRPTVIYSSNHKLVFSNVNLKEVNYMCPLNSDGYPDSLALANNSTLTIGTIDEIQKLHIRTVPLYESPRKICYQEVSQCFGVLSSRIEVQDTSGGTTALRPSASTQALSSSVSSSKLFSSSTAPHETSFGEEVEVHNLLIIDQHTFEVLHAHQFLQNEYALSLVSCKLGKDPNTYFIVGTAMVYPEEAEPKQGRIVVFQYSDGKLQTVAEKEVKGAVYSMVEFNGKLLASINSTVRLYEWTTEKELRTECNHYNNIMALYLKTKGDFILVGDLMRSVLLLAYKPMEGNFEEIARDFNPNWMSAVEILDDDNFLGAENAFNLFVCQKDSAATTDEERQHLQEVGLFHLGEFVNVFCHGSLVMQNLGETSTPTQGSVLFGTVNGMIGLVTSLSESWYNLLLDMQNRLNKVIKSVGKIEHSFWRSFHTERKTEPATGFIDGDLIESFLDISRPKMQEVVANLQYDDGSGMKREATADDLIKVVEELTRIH
T3 sequence (Q96SW2 whole entry): as the sequence (Q96SW2 whole entry partner, the tested form may be a part) above
T3 sequence (Q9UKS7 whole entry): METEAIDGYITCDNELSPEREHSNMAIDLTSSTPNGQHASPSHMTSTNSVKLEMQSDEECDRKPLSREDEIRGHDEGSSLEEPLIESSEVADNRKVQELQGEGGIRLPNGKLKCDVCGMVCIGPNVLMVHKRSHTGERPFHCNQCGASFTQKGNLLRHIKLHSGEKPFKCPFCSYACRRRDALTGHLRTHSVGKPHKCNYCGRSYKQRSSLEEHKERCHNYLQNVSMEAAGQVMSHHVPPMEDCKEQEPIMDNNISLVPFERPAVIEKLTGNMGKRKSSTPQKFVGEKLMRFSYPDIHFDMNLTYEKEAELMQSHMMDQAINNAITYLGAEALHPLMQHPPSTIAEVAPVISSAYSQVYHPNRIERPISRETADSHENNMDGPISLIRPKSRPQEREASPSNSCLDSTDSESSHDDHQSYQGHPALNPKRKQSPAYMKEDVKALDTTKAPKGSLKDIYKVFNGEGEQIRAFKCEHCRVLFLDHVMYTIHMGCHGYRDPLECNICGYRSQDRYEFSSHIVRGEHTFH

| SMILES | IKZF1 GFP/RFP Relative Abundance (IKZF1; [10]) | IKZF1 GFP/RFP Relative Abundance (IKZF1; [11]) | IKZF1 GFP/RFP Relative Abundance (IKZF1; [12]) | IKZF2 GFP/RFP Relative Abundance (IKZF2; [10]) | IKZF2 GFP/RFP Relative Abundance (IKZF2; [11]) | IKZF2 GFP/RFP Relative Abundance (IKZF2; [12]) | Helios degradation on co-treatment with proteasome or NAE inhibitor (Helios [1]; Jurkat cells) | Helios degradation (immunoblot) (Helios [1]) | TR-FRET signal (520/490 ratio), CRBN-Helios dimerization, in words (CRBN and Helios (IKZF2)) | TR-FRET-IKZF2 (Normalized to CC-885) (CRBN and Helios (IKZF2); [13]) | TR-FRET-IKZF2 (Normalized to CC-885) (CRBN and Helios (IKZF2); [14]) | TR-FRET-IKZF2 (Normalized to CC-885) (CRBN and Helios (IKZF2); [15]) | Ikaros degradation (immunoblot) (Ikaros [2]) | GSPT1 GFP/RFP Relative Abundance (GSPT1 [3]; [10]) | GSPT1 GFP/RFP Relative Abundance (GSPT1 [3]; [11]) | GSPT1 GFP/RFP Relative Abundance (GSPT1 [3]; [12]) | other results |
| --- | --- | --- | --- | --- | --- | --- | --- | --- | --- | --- | --- | --- | --- | --- | --- | --- | --- |
| Cc1ccc(NC(=O)NC(C)c2cccc(NC3=CC(=O)N(C4CCC(=O)NC4=O)C3=O)c2)cc1Cl (stereo not drawn) [Compound 54, 1-(3-chloro-4-methylphenyl)-3-(1-(3-((1-(2,6-dioxopiperidin-3-yl)-2,5-dioxo-2,5-dihydro-1H-pyrrol-3-yl)amino)phenyl)ethyl)urea] | 0.119 | 0.106 | 0.102 | 0.030 | 0.024 | 0.027 | both prevented Helios degradation | induced CRBN-dependent Helios degradation | scored even higher than compound 44 | 1.729 | 1.629 | 1.382 | lost some degradation activity against Ikaros in comparison to compound 44 | 0.420 | 0.638 | 0.567 | IKZF2 mRNA levels (qPCR) (Ikzf2 mRNA): did not affect mRNA levels of IKZF2; Helios degradation in murine cells (Helios [4]): Helios was only degraded in Crbn^I391V/I391V cells |
| Cc1ccc(NC(=O)NC(C)(C)c2cccc(NC3=CC(=O)N(C4CCC(=O)NC4=O)C3=O)c2)cc1Cl (stereo not drawn) [Compound 69, 1-(3-chloro-4-methylphenyl)-3-(2-(3-((1-(2,6-dioxopiperidin-3-yl)-2,5-dioxo-2,5-dihydro-1H-pyrrol-3-yl)amino)phenyl)propan-2-yl)urea] | 0.086 | 0.140 | 0.132 | 0.032 | 0.013 | 0.028 | Helios degradation is dependent on the proteasome | induced CRBN-dependent Helios degradation | induced higher TR-FRET signals than CC-885 | 2.037 | 1.970 | 1.737 | did not affect the stability of GSPT1 or Ikaros | – | – | – | DC50 (IKZF1; [16]): 14 nM; DC50 (IKZF2; [16]): 3.6 nM; GSPT1 stability (immunoblot) (GSPT1 [5]): did not affect the stability of GSPT1 or Ikaros; Ikaros degradation in regulatory T cells (flow cytometry) (Ikaros [6]): not Ikaros; IFNγ production [7]: increased production of IFNγ upon restimulation; Helios degradation in regulatory T cells (flow cytometry) (Helios [8]): capable of inducing degradation of Helios; Helios degradation in isolated Tregs (Helios [9]): able to induce degradation of Helios in Tregs; DC50 (GSPT1 [3]; [16]): > 1000 nM |
| Cc1ccc(NC(=O)NCc2cccc(NC3=CC(=O)N(C4CCC(=O)NC4=O)C3=O)c2)cc1Cl (stereo not drawn) [Compound 44, 1-(3-chloro-4-methylphenyl)-3-(3-((1-(2,6-dioxopiperidin-3-yl)-2,5-dioxo-2,5-dihydro-1H-pyrrol-3-yl)amino)benzyl)urea] | 0.059 | 0.071 | 0.072 | 0.042 | 0.079 | 0.085 | – | – | increased activity over CC-885 at all tested concentrations | 1.223 | 1.191 | 1.119 | – | 0.399 | 0.504 | 0.744 | SALL4 ZNF1-2 GFP/RFP Relative Abundance (SALL4 ZNF1-2; [10]): 0.888; SALL4 ZNF1-2 GFP/RFP Relative Abundance (SALL4 ZNF1-2; [11]): 0.742; SALL4 ZNF1-2 GFP/RFP Relative Abundance (SALL4 ZNF1-2; [12]): 0.702; Helios loss (immunoblot) (Helios [1]; Jurkat cells, 24 h treatment): induced loss of both Ikaros and Helios; also recorded: required 24 h treatment; Ikaros loss (immunoblot) (Ikaros [2]; 24 h treatment): induced loss of both Ikaros and Helios |
